Square brackets hold non-standard residues; d marks the D form. Peptide text beside a SMILES is read from it. NMeR = CN[C@@H](CCCNC(=N)N)C(=O)O; Tle = CC(C)(C)[C@H](N)C(=O)O
Experiments:
[1] = biological target: Neurotensin receptor type 2 (Mus musculus, UniProt P70310)
[2] = biological target: Neurotensin receptor type 1 (Mus musculus, UniProt O88319)
Neurotensin receptor type 1, sequence (O88319 whole entry): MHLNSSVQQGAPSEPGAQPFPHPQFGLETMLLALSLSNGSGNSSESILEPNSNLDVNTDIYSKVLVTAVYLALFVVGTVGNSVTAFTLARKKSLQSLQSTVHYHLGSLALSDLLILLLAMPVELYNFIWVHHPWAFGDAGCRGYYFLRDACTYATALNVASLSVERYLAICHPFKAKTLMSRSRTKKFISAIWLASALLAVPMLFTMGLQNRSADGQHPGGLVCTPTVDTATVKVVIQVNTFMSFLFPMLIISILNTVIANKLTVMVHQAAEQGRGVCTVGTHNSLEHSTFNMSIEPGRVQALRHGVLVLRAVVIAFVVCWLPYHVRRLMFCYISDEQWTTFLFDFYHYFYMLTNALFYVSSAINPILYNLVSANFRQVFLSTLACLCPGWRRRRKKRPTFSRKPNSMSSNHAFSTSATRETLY

Neurotensin receptor type 2, sequence (P70310 whole entry): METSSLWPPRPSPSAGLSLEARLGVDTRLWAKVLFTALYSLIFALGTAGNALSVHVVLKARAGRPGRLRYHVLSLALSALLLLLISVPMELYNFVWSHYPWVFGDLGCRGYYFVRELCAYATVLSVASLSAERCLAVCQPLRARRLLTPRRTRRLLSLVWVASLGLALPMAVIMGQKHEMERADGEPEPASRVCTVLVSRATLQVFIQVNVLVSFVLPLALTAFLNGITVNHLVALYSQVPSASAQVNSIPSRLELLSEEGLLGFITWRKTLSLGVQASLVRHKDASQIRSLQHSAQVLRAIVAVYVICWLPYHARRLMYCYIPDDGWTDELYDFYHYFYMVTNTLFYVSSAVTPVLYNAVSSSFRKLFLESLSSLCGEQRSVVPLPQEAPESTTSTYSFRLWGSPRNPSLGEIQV

| Compound | Ki [1] [nM] | Ki [2] [nM] |
| --- | --- | --- |
| CC1CN(C2CCC(C#N)(c3ccc(F)cc3)CC2)CCC1(C(=O)O)c1ccccc1 (stereo not given) [NSC_54385] | 17 |  |
| H-KNPYIL-OH [NSC_128644] | 7 | 0.25 |
| CN[C@@H](CCCNC(=N)N)C(=O)N[C@@H](CCCCN)C(=O)N1CCC[C@H]1C(=O)N[C@@H](Cc1c[nH]c2ccccc12)C(=O)N[C@H](C(=O)N[C@@H](CC(C)C)C(=O)O)C(C)(C)C (H-[NMeR]KPW[Tle]L-OH) | 3.8 | 0.11 |

Reference: BindingDB's records for doi:10.1124/jpet.300.1.305 (Merck Research Laboratories, 2002)
